{"source": "patent US20220031815A1", "about": "“ANIMAL FEED COMPOSITION AND USE THEREOF” (DSM IP ASSETS B.V., priority 2018, published 2022)", "test_system": "male broiler chickens (Cobb-500)", "test": "In vivo broiler trial 1: growth performance under litter/density challenge", "description": "The trial was performed at Poultrz section, INTA-EEA Pergamino, Buenos Aires, Argentina from Aug. 15, 2017 to Oct. 3, 2017. Day-old male broiler chickens (“Cobb-500”), were supplied by a commercial hatchery (Granja Tres Arroyos, Tres Arroyos 378, Buenos Aires, Argentina).\nBirds were housed in a conventional barn (netting open sides with curtains) into floor pens with shaving wood as litter. Gas heaters, fans and foggers were used to control the barn temperature.\nAll birds were weighed, separated in categories of 1 g and distributed to form homogenous lots. Birds of extreme weights were excluded.\nFeed and waer were providing ad-libitum.\nThe experimental diets (Starter, Growing, Finisher and last week) were based on corn, soybean meal as main ingredients (Table 3). Phytase (RONOZYME® HiPhos GT, dose 1000 FYT/kg of feed, 100 g/tn of feed) was used in all the treatments. Rovimix broilders from DSM was used as vitamin-mineral premix, and maduramycin as coccidiostat. The composition of the feed was listed as Table 4\nIndividual body weight and pen feed intake were determined weekly.\nBased on this information feed conversion and weight gain were calculated considering each phase and the complete cycle.\nThe live weight/feed conversion ratio was used. This is a simplification to avoid the impact of mortality when a low number of birds per pen is used (18 in this experiment).\nUniformity (% of birds included in a range of weights of […] of the pen mean body weight) was determined in each pen at 48 days of age."}
{"substance": "Enramycin", "values": [{"measurement": "effect on feed conversion", "setting": "Enramycin significant from day 35, muramidase at day 7 and from day 21", "result": "the feed conversion was improved"}, {"measurement": "reduction of days to reach the slaughtering weight (2800 g)", "setting": "effect of inclusion in feed (Enramycin 10 ppm; Muramidase 392 ppm)", "result": 1.1, "unit": "days"}, {"measurement": "effect on body weight", "setting": "significant from day 21", "result": "an increment in body weight was observed"}]}
